How the values were obtained:
[1] = biological target: Human MER (residues 528-999) (Homo sapiens (Human), UniProt Q12866); experiment: Human Mer kinase assay, HTRF KinEase (Example C-2); type: biochemical; details: protocol of Example C-2 (other compounds)
Method in brief: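 HTRF KinEase TK assay with MER 528-999 (1 ng/well) in enzymatic buffer plus 5 mM MgCl2 and 1 mM DTT, biotinylated peptide substrate and ATP at Km (40 μM), 3% DMSO final, 60 min at room temperature. Stopped with EDTA detection mix (SA-XL665, TK antibody-Eu3+), read at 665/620 nm after 60 min; IC50 from 10-point 4-parameter fit, normalized to DMSO and 1 μM reference.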

[2] = biological target: Human MET (residues 956-1390) (Homo sapiens (Human), UniProt P08581); experiment: Human Met kinase assay, HTRF KinEase (Example D-2); type: biochemical; details: protocol of Example D-2 (other compounds); read-out: c-Met IC50
Chain of Human MET (residues 956-1390) (P08581 956-1390): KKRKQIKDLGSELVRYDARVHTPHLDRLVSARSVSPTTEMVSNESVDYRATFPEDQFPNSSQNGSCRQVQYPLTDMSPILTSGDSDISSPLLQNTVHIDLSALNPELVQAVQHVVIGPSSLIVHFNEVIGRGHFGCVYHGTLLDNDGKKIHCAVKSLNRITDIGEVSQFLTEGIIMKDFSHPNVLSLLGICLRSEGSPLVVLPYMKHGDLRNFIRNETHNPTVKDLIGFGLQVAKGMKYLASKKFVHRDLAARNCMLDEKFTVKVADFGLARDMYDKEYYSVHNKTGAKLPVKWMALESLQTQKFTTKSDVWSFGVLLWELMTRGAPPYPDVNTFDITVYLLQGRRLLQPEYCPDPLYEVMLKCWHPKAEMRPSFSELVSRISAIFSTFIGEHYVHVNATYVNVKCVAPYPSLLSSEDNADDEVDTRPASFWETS
Method in brief: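 HTRF KinEase assay on MET residues 956-1390 (0.1 ng/well) in buffer with 5 mM MgCl2, 1 mM DTT and 1 mM MnCl2, with biotinylated peptide substrate, ATP at Km, 10 compound concentrations and 3% DMSO final, run 40 min at room temperature. The […] signal was normalized to DMSO and to 1 μM reference compound, and IC50 came from a 4-parameter logistic fit.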

[3] = biological target: Mer (phospho-Mer, MERTK-transfected 293A cells) (Homo sapiens (Human), UniProt Q12866); experiment: Mer autophosphorylation ELISA in transient transfected 293A cells (Example H); type: cell-based; details: cellular activity; Mer autophosphorylation ELISA in transient transfected 293A cells
Chain of Mer (phospho-Mer, MERTK-transfected 293A cells) (Q12866 21-999): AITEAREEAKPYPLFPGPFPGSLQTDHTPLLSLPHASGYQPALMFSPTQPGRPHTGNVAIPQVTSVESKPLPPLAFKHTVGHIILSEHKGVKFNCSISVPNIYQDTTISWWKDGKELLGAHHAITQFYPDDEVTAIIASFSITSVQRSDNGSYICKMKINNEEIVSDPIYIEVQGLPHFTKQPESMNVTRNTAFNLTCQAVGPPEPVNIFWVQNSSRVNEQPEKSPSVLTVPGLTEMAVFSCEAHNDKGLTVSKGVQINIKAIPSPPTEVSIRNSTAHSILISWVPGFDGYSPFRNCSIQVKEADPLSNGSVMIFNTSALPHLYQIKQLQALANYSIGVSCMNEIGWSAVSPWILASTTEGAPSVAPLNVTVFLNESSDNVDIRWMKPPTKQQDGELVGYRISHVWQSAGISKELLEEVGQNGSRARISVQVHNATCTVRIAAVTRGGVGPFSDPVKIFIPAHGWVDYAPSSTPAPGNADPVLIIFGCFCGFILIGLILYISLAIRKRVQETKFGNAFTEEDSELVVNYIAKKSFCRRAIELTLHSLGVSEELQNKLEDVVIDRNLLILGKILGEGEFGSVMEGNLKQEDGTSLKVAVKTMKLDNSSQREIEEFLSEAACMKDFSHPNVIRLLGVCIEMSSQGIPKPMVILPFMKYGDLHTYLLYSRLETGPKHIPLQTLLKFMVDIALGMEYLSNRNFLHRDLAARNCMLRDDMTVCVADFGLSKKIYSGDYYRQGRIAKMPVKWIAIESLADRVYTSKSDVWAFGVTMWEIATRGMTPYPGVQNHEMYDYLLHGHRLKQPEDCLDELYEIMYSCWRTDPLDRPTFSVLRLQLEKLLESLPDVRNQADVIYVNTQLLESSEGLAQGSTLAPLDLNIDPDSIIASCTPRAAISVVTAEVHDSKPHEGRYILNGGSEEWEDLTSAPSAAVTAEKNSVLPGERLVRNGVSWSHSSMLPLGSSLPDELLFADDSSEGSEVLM
Method in brief: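 Human MERTK transiently transfected into 293A cells; compounds as 8-point dose curve in serum-free medium (0.3% DMSO final), 1 h. Lysates assayed by phospho-Mer sandwich ELISA against phospho-Mer standard; DMSO = 100%, reference inhibitor = 0% activity; IC50 from 4-parameter logistic fit.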

[4] = biological target: Human KDR (residues 790-1356) (Homo sapiens (Human), UniProt P35968); experiment: Human KDR kinase assay, HTRF KinEase (Example B-2); type: biochemical; details: protocol of Example B-2 (other compounds)
Chain of Human KDR (residues 790-1356) (P35968 790-1356): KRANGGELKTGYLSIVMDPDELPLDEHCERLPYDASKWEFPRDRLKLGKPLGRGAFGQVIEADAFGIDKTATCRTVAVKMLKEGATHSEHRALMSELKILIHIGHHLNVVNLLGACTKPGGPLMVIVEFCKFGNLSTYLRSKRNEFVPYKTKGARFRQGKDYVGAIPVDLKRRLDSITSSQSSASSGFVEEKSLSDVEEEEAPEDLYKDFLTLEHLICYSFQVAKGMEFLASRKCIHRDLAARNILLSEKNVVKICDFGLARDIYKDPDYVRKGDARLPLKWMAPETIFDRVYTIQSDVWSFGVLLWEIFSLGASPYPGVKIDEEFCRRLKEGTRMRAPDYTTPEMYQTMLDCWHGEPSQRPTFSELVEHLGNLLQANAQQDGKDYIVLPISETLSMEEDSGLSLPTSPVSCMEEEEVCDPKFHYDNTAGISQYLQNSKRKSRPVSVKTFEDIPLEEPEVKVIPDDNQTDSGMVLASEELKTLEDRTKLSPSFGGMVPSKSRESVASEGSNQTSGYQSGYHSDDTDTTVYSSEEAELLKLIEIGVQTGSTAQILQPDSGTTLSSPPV
Method in brief: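 Human KDR residues 790-1356 (0.1 ng/well) in buffer with 5 mM MgCl2, 1 mM MnCl2, 1 mM DTT, biotinylated peptide substrate, ATP at Km (4.0 μM), 3% DMSO, 10 compound concentrations; 40 min, room temperature. EDTA stop, streptavidin-XL665/Eu-TK antibody HTRF read 665/620 nm; 4-parameter IC50.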

Chain of Human MER (residues 528-999) (Q12866 528-999): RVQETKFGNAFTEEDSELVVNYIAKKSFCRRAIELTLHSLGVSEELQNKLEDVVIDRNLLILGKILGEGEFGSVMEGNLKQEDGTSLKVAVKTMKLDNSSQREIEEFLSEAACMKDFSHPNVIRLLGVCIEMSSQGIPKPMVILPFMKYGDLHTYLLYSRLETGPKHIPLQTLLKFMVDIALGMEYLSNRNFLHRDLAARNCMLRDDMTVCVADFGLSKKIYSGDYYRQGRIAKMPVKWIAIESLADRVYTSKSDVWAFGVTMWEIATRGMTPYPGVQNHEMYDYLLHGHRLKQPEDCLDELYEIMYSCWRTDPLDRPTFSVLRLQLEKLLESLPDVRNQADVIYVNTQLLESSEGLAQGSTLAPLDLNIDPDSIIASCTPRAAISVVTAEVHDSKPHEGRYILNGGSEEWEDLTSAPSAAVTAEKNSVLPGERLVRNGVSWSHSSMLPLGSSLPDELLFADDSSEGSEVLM

| IC50 [1] | IC50 [2] | IC50 [3] | IC50 [4] | SMILES |
| --- | --- | --- | --- | --- |
| < 100 nM | < 100 nM | < 100 nM | > 300 nM | COc1cnc2c(Oc3ccc(NC(=O)c4ncc(C)n(-c5ccc(F)cc5)c4=O)cc3F)ccnc2c1 [Compound 94, N-[3-Fluoro-4-[(7-methoxy-1,5-naphthyridin-4-yl)oxy]phenyl]-4-(4-fluorophenyl)-5-methyl-3-oxopyrazine-2-carboxamide] |
| < 100 nM | < 100 nM | < 100 nM | 100 to 300 nM | COc1cc2nccc(Oc3ccc(NC(=O)c4nc(C)c(C)n(-c5ccc(F)cc5)c4=O)cc3F)c2nc1OC [Compound 95, N-[4-[(6,7-Dimethoxy-1,5-naphthyridin-4-yl)oxy]-3-fluorophenyl]-4-(4-fluorophenyl)-5,6-dimethyl-3-oxopyrazine-2-carboxamide] |
| < 100 nM | < 100 nM | < 100 nM | < 100 nM | COc1cc2nccc(Oc3ccc(NC(=O)c4ncnc(-c5ccc(F)cc5)c4O)cc3F)c2nc1OC [Compound 96, N-[4-[(6,7-Dimethoxy-1,5-naphthyridin-4-yl)oxy]-3-fluorophenyl]-6-(4-fluorophenyl)-5-hydroxypyrimidine-4-carboxamide] |
| < 100 nM | < 100 nM | < 100 nM | > 300 nM | COc1cc2nccc(Oc3ncc(NC(=O)c4cn(-c5cnn(C)c5)cc(-c5ccc(F)cc5)c4=O)cc3F)c2cc1OC [Compound 401, N-[6-(6,7-dimethoxyquinolin-4-yl)oxy-5-fluoropyridin-3-yl]-5-(4-fluorophenyl)-1-(1-methylpyrazol-4-yl)-4-oxopyridine-3-carboxamide] |
| < 100 nM | < 100 nM | < 100 nM | > 300 nM | COc1cc2nccc(Oc3ncc(NC(=O)c4cn(-c5ccn(C)n5)cc(-c5ccc(F)cc5)c4=O)cc3F)c2cc1OC [Compound 402, N-[6-(6,7-dimethoxyquinolin-4-yl)oxy-5-fluoropyridin-3-yl]-5-(4-fluorophenyl)-1-(1-methylpyrazol-3-yl)-4-oxopyridine-3-carboxamide] |
| < 100 nM | 100 to 300 nM | < 100 nM | > 300 nM | CCOc1c(-c2ccc(F)cc2)cnc(C)c1C(=O)Nc1ccc(Oc2ccnc3cc(OC)c(OC)nc23)c(F)c1 [Compound 403, N-[4-[(6,7-dimethoxy-1,5-naphthyridin-4-yl)oxy]-3-fluorophenyl]-4-ethoxy-5-(4-fluorophenyl)-2-methylpyridine-3-carboxamide] |
| < 100 nM | < 100 nM | < 100 nM | 100 to 300 nM | COc1cc2nccc(Oc3ccc(NC(=O)c4c5n(cc(-c6ccc(F)cc6)c4=O)CCC5)cc3)c2nc1OC [Compound 407, N-[4-[(6,7-dimethoxy-1,5-naphthyridin-4-yl)oxy]phenyl]-6-(4-fluorophenyl)-7-oxo-2,3-dihydro-1H-indolizine-8-carboxamide] |
| < 100 nM | < 100 nM | < 100 nM | < 100 nM | CNC(=O)c1cc2c(Oc3ccc(NC(=O)c4c5n(cc(-c6ccc(F)cc6)c4=O)CCC5)cc3F)ccnc2cc1OC [Compound 408, 4-[2-fluoro-4-[[6-(4-fluorophenyl)-7-oxo-2,3-dihydro-1H-indolizine-8-carbonyl]amino]phenoxy]-7-methoxy-N-methylquinoline-6-carboxamide] |
| < 100 nM | < 100 nM | < 100 nM | < 100 nM | COc1cc2nccc(Oc3ccc(NC(=O)c4c5n(cc(-c6ccc(F)cc6)c4=O)CCC5)cc3F)c2cc1OC [Compound 409, N-[4-(6,7-dimethoxyquinolin-4-yl)oxy-3-fluorophenyl]-6-(4-fluorophenyl)-7-oxo-2,3-dihydro-1H-indolizine-8-carboxamide] |
| < 100 nM | < 100 nM | 100 to 300 nM | > 300 nM | CCn1cc(C(=O)Nc2ccc(Oc3ccnc4cc(O)cnc34)c(F)c2)c(=O)c(-c2ccc(F)cc2)c1C [Compound 410, 1-ethyl-N-[3-fluoro-4-[(7-hydroxy-1,5-naphthyridin-4-yl)oxy]phenyl]-5-(4-fluorophenyl)-6-methyl-4-oxopyridine-3-carboxamide] |
| < 100 nM | < 100 nM | < 100 nM | > 300 nM | COc1cnc2c(Oc3ccc(NC(=O)c4cn(C)c(Cl)c(-c5ccc(F)cc5)c4=O)cc3F)ccnc2c1 [Compound 411, 6-chloro-N-[3-fluoro-4-[(7-methoxy-1,5-naphthyridin-4-yl)oxy]phenyl]-5-(4-fluorophenyl)-1-methyl-4-oxopyridine-3-carboxamide] |
| < 100 nM | < 100 nM | < 100 nM | < 100 nM | COc1cc2nccc(Oc3ccc(NC(=O)c4cn(C)c(Cl)c(-c5ccc(F)cc5)c4=O)cc3F)c2nc1OC [Compound 412, 6-chloro-N-[4-[(6,7-dimethoxy-1,5-naphthyridin-4-yl)oxy]-3-fluorophenyl]-5-(4-fluorophenyl)-1-methyl-4-oxopyridine-3-carboxamide] |
| < 100 nM | < 100 nM | < 100 nM | < 100 nM | COc1cc2nccc(Oc3ccc(NC(=O)c4cnc(C)c(-c5ccc(F)cc5)c4O)cc3)c2nc1OC(C)C [Compound 413, 5-(4-fluorophenyl)-4-hydroxy-N-[4-[(7-methoxy-6-propan-2-yloxy-1,5-naphthyridin-4-yl)oxy]phenyl]-6-methylpyridine-3-carboxamide] |
| < 100 nM | < 100 nM | < 100 nM | > 300 nM | COc1cc2nccc(Oc3ccc(NC(=O)c4cnc(C)c(-c5ccc(F)cc5C)c4O)cc3)c2nc1OC(C)C [Compound 414, 5-(4-fluoro-2-methylphenyl)-4-hydroxy-N-[4-[(7-methoxy-6-propan-2-yloxy-1,5-naphthyridin-4-yl)oxy]phenyl]-6-methylpyridine-3-carboxamide] |
| < 100 nM | < 100 nM | < 100 nM | 100 to 300 nM | COc1cc2nccc(Oc3ccc(NC(=O)c4cnc(C)c(-c5ccc(F)cc5)c4O)cc3F)c2nc1OC(C)C [Compound 415, N-[3-fluoro-4-[(7-methoxy-6-propan-2-yloxy-1,5-naphthyridin-4-yl)oxy]phenyl]-5-(4-fluorophenyl)-4-hydroxy-6-methylpyridine-3-carboxamide] |
| < 100 nM | < 100 nM | < 100 nM | > 300 nM | COc1cc2nccc(Oc3ccc(NC(=O)c4cnc(C)c(-c5ccc(F)cc5C)c4O)cc3F)c2nc1OC(C)C [Compound 416, N-[3-fluoro-4-[(7-methoxy-6-propan-2-yloxy-1,5-naphthyridin-4-yl)oxy]phenyl]-5-(4-fluoro-2-methylphenyl)-4-hydroxy-6-methylpyridine-3-carboxamide] |
| 100 to 300 nM | < 100 nM | 100 to 300 nM | > 300 nM | COc1cnc2c(Oc3ccc(NC(=O)c4cnc(C)c(-c5c(C)cc(F)cc5C)c4O)cc3F)ccnc2c1 [Compound 417, 5-(4-fluoro-2,6-dimethylphenyl)-N-[3-fluoro-4-[(7-methoxy-1,5-naphthyridin-4-yl)oxy]phenyl]-4-hydroxy-6-methylpyridine-3-carboxamide] |
| < 100 nM | < 100 nM | < 100 nM | 100 to 300 nM | CCc1cnc2c(Oc3ccc(NC(=O)c4cnc(C)c(-c5ccc(F)cc5)c4O)cc3F)ccnc2c1 [Compound 418, N-[4-[(7-ethyl-1,5-naphthyridin-4-yl)oxy]-3-fluorophenyl]-5-(4-fluorophenyl)-4-hydroxy-6-methylpyridine-3-carboxamide] |
| < 100 nM | < 100 nM | < 100 nM | > 300 nM | CCc1cnc2c(Oc3ccc(NC(=O)c4cnc(C)c(-c5ccc(F)cc5C)c4O)cc3F)ccnc2c1 [Compound 419, N-[4-[(7-ethyl-1,5-naphthyridin-4-yl)oxy]-3-fluorophenyl]-5-(4-fluoro-2-methylphenyl)-4-hydroxy-6-methylpyridine-3-carboxamide] |
| < 100 nM | 100 to 300 nM | < 100 nM | 100 to 300 nM | CCc1cc2nccc(Oc3ccc(NC(=O)c4cnc(C)c(-c5ccc(F)cc5)c4O)cc3F)c2nc1OC [Compound 420, N-[4-[(7-ethyl-6-methoxy-1,5-naphthyridin-4-yl)oxy]-3-fluorophenyl]-5-(4-fluorophenyl)-4-hydroxy-6-methylpyridine-3-carboxamide] |
